Laboratory results reported in the supplement of paper PMC4862054.

The compounds below were run on SK-BR-3 (assay: normalised viability (% of control), CellTiter-Blue; higher = more viable cells (about 100 = DMSO control)). Conditions: 100 nM; incubation time: 72 h.
Procedure, shortened: (§1)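 384-well plates were pre-loaded with compound in 5 µl medium before 20 µl of breast cancer cell suspension was seeded. Following 72 h incubation, 2.5 µl CellTiter-Blue reagent was added for 2 h at 37 °C. Fluorescence was read at 560/590 nm and plates were normalised to vehicle (100) and a positive kill control (0), checked by Z'-factor. Normalised viability is reported at a single listed concentration of the series.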
In the case of Cn1c(=O)c(F)c(Nc2ccc(I)cc2F)c2c(=O)n(C[C@@H](O)CO)cnc21 [TAK-733], the normalised viability is reported as 102%. CCS(=O)(=O)c1cccc(-c2cc(C(=O)NC3CCN(C)CC3)c(C)c3[nH]c4ncc(C)cc4c23)c1 [TAK-901] gave a normalised viability of 93.8%. With CS(=O)(=O)OCCCCOS(C)(=O)=O [Busulfan] the normalised viability was 95.1%. In the case of COc1cccc2c1C(=O)c1c(O)c3c(c(O)c1C2=O)C[C@@](O)(C(C)=O)C[C@@H]3O[C@H]1C[C@H](N)[C@H](O)[C@H](C)O1 [Daunorubicin], the normalised viability is reported as 40.1%.

Same assay, conditions: 1000 nM; incubation time: 72 h
COc1ncc(-c2ccc3nccc(-c4ccnnc4)c3c2)cc1NS(=O)(=O)c1ccc(F)cc1F showed a normalised viability of 9.4%. Work on Cn1c(=O)c(F)c(Nc2ccc(I)cc2F)c2c(=O)n(C[C@@H](O)CO)cnc21 [TAK-733] yielded a normalised viability of 112%. CCS(=O)(=O)c1cccc(-c2cc(C(=O)NC3CCN(C)CC3)c(C)c3[nH]c4ncc(C)cc4c23)c1 [TAK-901] was tested, and the normalised viability was 52%. For COC1=CC(c2cc3ccccc3[nH]2)=N/C1=C\c1[nH]c(C)cc1C [Obatoclax], the normalised viability was 27.1%. COc1cccc2c1C(=O)c1c(O)c3c(c(O)c1C2=O)C[C@@](O)(C(C)=O)C[C@@H]3O[C@H]1C[C@H](N)[C@H](O)[C@H](C)O1 [Daunorubicin] was tested, and the normalised viability was 6.42%. With O=c1[nH]cc(F)c(=O)[nH]1 [Fluorouracil] the normalised viability was 62.4%. Work on CN1CCN(c2ccc3nc(-c4c(N)c5c(F)cccc5[nH]c4=O)[nH]c3c2)CC1 [Dovitinib] yielded a normalised viability of 94.8%.

Same assay, conditions: 10000 nM; incubation time: 72 h
COC1=CC(c2cc3ccccc3[nH]2)=N/C1=C\c1[nH]c(C)cc1C [Obatoclax] showed a normalised viability of 21.2%. CS(=O)(=O)OCCCCOS(C)(=O)=O [Busulfan] was tested, and the normalised viability was 104%. With O=c1[nH]cc(F)c(=O)[nH]1 [Fluorouracil] the normalised viability was 43.1%. With CN1CCN(c2ccc3nc(-c4c(N)c5c(F)cccc5[nH]c4=O)[nH]c3c2)CC1 [Dovitinib] the normalised viability was 72.9%.

Same assay, conditions: 100000 nM; incubation time: 72 h
Work on CS(=O)(=O)OCCCCOS(C)(=O)=O [Busulfan] yielded a normalised viability of 87.8%.

What follows are compounds tested on MFM-223 in the same assay as above. Conditions: 1 nM; incubation time: 72 h.
Procedure, shortened: as §1
For COc1ncc(-c2ccc3nccc(-c4ccnnc4)c3c2)cc1NS(=O)(=O)c1ccc(F)cc1F, the normalised viability was 99.9%. Compound Cn1c(=O)c(F)c(Nc2ccc(I)cc2F)c2c(=O)n(C[C@@H](O)CO)cnc21 [TAK-733] has a normalised viability of 90.4%. Compound CCS(=O)(=O)c1cccc(-c2cc(C(=O)NC3CCN(C)CC3)c(C)c3[nH]c4ncc(C)cc4c23)c1 [TAK-901] has a normalised viability of 96%. Compound COc1cccc2c1C(=O)c1c(O)c3c(c(O)c1C2=O)C[C@@](O)(C(C)=O)C[C@@H]3O[C@H]1C[C@H](N)[C@H](O)[C@H](C)O1 [Daunorubicin] has a normalised viability of 108%.

Same assay, conditions: 10 nM; incubation time: 72 h
Work on COC1=CC(c2cc3ccccc3[nH]2)=N/C1=C\c1[nH]c(C)cc1C [Obatoclax] yielded a normalised viability of 72.7%. Work on O=c1[nH]cc(F)c(=O)[nH]1 [Fluorouracil] yielded a normalised viability of 106%. CN1CCN(c2ccc3nc(-c4c(N)c5c(F)cccc5[nH]c4=O)[nH]c3c2)CC1 [Dovitinib] gave a normalised viability of 80.5%.

Same assay, conditions: 100 nM; incubation time: 72 h
For COc1ncc(-c2ccc3nccc(-c4ccnnc4)c3c2)cc1NS(=O)(=O)c1ccc(F)cc1F, the normalised viability was 21.3%. Cn1c(=O)c(F)c(Nc2ccc(I)cc2F)c2c(=O)n(C[C@@H](O)CO)cnc21 [TAK-733] showed a normalised viability of 79.8%. CCS(=O)(=O)c1cccc(-c2cc(C(=O)NC3CCN(C)CC3)c(C)c3[nH]c4ncc(C)cc4c23)c1 [TAK-901] was tested, and the normalised viability was 55%. CS(=O)(=O)OCCCCOS(C)(=O)=O [Busulfan] showed a normalised viability of 108%. Work on COc1cccc2c1C(=O)c1c(O)c3c(c(O)c1C2=O)C[C@@](O)(C(C)=O)C[C@@H]3O[C@H]1C[C@H](N)[C@H](O)[C@H](C)O1 [Daunorubicin] yielded a normalised viability of 104%.

Same assay, conditions: 1000 nM; incubation time: 72 h
For COc1ncc(-c2ccc3nccc(-c4ccnnc4)c3c2)cc1NS(=O)(=O)c1ccc(F)cc1F, the normalised viability was 14.6%. Cn1c(=O)c(F)c(Nc2ccc(I)cc2F)c2c(=O)n(C[C@@H](O)CO)cnc21 [TAK-733] gave a normalised viability of 64.5%. In the case of CCS(=O)(=O)c1cccc(-c2cc(C(=O)NC3CCN(C)CC3)c(C)c3[nH]c4ncc(C)cc4c23)c1 [TAK-901], the normalised viability is reported as 34%. COC1=CC(c2cc3ccccc3[nH]2)=N/C1=C\c1[nH]c(C)cc1C [Obatoclax] showed a normalised viability of 54.4%. For COc1cccc2c1C(=O)c1c(O)c3c(c(O)c1C2=O)C[C@@](O)(C(C)=O)C[C@@H]3O[C@H]1C[C@H](N)[C@H](O)[C@H](C)O1 [Daunorubicin], the normalised viability was 26.7%. Work on O=c1[nH]cc(F)c(=O)[nH]1 [Fluorouracil] yielded a normalised viability of 98.5%. In the case of CN1CCN(c2ccc3nc(-c4c(N)c5c(F)cccc5[nH]c4=O)[nH]c3c2)CC1 [Dovitinib], the normalised viability is reported as 56.4%.

Same assay, conditions: 10000 nM; incubation time: 72 h
Work on COC1=CC(c2cc3ccccc3[nH]2)=N/C1=C\c1[nH]c(C)cc1C [Obatoclax] yielded a normalised viability of 25.6%. CS(=O)(=O)OCCCCOS(C)(=O)=O [Busulfan] showed a normalised viability of 95.7%. In the case of O=c1[nH]cc(F)c(=O)[nH]1 [Fluorouracil], the normalised viability is reported as 94.3%. Work on CN1CCN(c2ccc3nc(-c4c(N)c5c(F)cccc5[nH]c4=O)[nH]c3c2)CC1 [Dovitinib] yielded a normalised viability of 61%.

Same assay, conditions: 100000 nM; incubation time: 72 h
CS(=O)(=O)OCCCCOS(C)(=O)=O [Busulfan] showed a normalised viability of 99.1%.

Each compound was assayed on MDA-MB-231 in the same assay as above. Conditions: 1 nM; incubation time: 72 h.
Procedure, shortened: as §1
COc1ncc(-c2ccc3nccc(-c4ccnnc4)c3c2)cc1NS(=O)(=O)c1ccc(F)cc1F showed a normalised viability of 96.2%. Compound Cn1c(=O)c(F)c(Nc2ccc(I)cc2F)c2c(=O)n(C[C@@H](O)CO)cnc21 [TAK-733] has a normalised viability of 89.2%. Compound CCS(=O)(=O)c1cccc(-c2cc(C(=O)NC3CCN(C)CC3)c(C)c3[nH]c4ncc(C)cc4c23)c1 [TAK-901] has a normalised viability of 99.4%. Compound COc1cccc2c1C(=O)c1c(O)c3c(c(O)c1C2=O)C[C@@](O)(C(C)=O)C[C@@H]3O[C@H]1C[C@H](N)[C@H](O)[C@H](C)O1 [Daunorubicin] has a normalised viability of 101%.

Same assay, conditions: 10 nM; incubation time: 72 h
Work on COC1=CC(c2cc3ccccc3[nH]2)=N/C1=C\c1[nH]c(C)cc1C [Obatoclax] yielded a normalised viability of 77%. With O=c1[nH]cc(F)c(=O)[nH]1 [Fluorouracil] the normalised viability was 104%. CN1CCN(c2ccc3nc(-c4c(N)c5c(F)cccc5[nH]c4=O)[nH]c3c2)CC1 [Dovitinib] gave a normalised viability of 96.1%.

Same assay, conditions: 100 nM; incubation time: 72 h
With COc1ncc(-c2ccc3nccc(-c4ccnnc4)c3c2)cc1NS(=O)(=O)c1ccc(F)cc1F the normalised viability was 41.2%. Compound Cn1c(=O)c(F)c(Nc2ccc(I)cc2F)c2c(=O)n(C[C@@H](O)CO)cnc21 [TAK-733] has a normalised viability of 36.1%. CCS(=O)(=O)c1cccc(-c2cc(C(=O)NC3CCN(C)CC3)c(C)c3[nH]c4ncc(C)cc4c23)c1 [TAK-901] gave a normalised viability of 64.9%. CS(=O)(=O)OCCCCOS(C)(=O)=O [Busulfan] was tested, and the normalised viability was 94.3%. For COc1cccc2c1C(=O)c1c(O)c3c(c(O)c1C2=O)C[C@@](O)(C(C)=O)C[C@@H]3O[C@H]1C[C@H](N)[C@H](O)[C@H](C)O1 [Daunorubicin], the normalised viability was 38.4%.

Same assay, conditions: 1000 nM; incubation time: 72 h
Compound COc1ncc(-c2ccc3nccc(-c4ccnnc4)c3c2)cc1NS(=O)(=O)c1ccc(F)cc1F has a normalised viability of 23.7%. Work on Cn1c(=O)c(F)c(Nc2ccc(I)cc2F)c2c(=O)n(C[C@@H](O)CO)cnc21 [TAK-733] yielded a normalised viability of 33.8%. Compound CCS(=O)(=O)c1cccc(-c2cc(C(=O)NC3CCN(C)CC3)c(C)c3[nH]c4ncc(C)cc4c23)c1 [TAK-901] has a normalised viability of 20.6%. Work on COC1=CC(c2cc3ccccc3[nH]2)=N/C1=C\c1[nH]c(C)cc1C [Obatoclax] yielded a normalised viability of 11.4%.
